Results reported in patent US7074768B2, “Modified protein kinase A-specific oligonucleotides and methods of their use” (Idera Pharmaceuticals, Inc., priority 1995, dated 2006).

Legend:
[1] = test system: ZR75-1 human breast cancer cells; experiment: Soft agar growth of ZR75-1 cells; assay type: cell-based; conditions: for inhibition of cell growth: every 48 hours for three times (Examples 24, 25)
Description: (§1) Cells (10^4 cells/well) were seeded in 0.5 ml of 0.3% Difco Noble agar (Difco, Detroit, Mich.) supplemented with complete culture medium. This suspension was layered over 0.5 ml of 0.8% agar-medium base layer in 24 multiwell cluster dishes (Becton Dickinson) and treated with various concentrations of docetaxel (day 0). […] Twelve days after the last treatment, cells were stained with nitroblue tetrazolium (Sigma) and colonies larger than 0.05 mm were counted.
as §1
(§2) Soft agar growth. Cells (10^4 cells/well) were seeded in 0.5 ml of 0.3% Difco Noble agar (Difco, Detroit, Mich.) supplemented with complete culture medium. This suspension was layered over 0.5 ml of 0.8% agar-medium base layer in 24 multiwell cluster dishes (Becton Dickinson) and treated with various concentrations of docetaxel (day 0). The HYB 165 was added after 12 hrs (day 1) and on day 3. Twelve days after the last treatment, cells were stained with nitroblue tetrazolium (Sigma) and colonies larger than 0.05 mm were counted.
as §2, with “508” for “165”, “hrs” for “hrs (day 1)”, “2, 3 and 4. After 12” for “3. Twelve”, “days” for “days after”, “the” for “the last treatment,”
Soft agar growth. Cells (10^4 cells/well) were seeded in 0.5 ml of 0.3% Difco Noble agar (Difco, Detroit, Mich.) supplemented with complete culture medium. […] After 12 days the cells were stained with nitroblue tetrazolium (Sigma) and colonies larger than 0.05 mm were counted.
as §2, with “of” for “of docetaxel (day 0). The”, “or HYB295 every 48 hours for three times. After” for “was added after”, “12” for “12 hrs (day 1) and on day 3. Twelve”, “days” for “days after”, “the” for “the last treatment,”, “(Sigma, St. Louis, Mo.)” for “(Sigma)”
as §2, with “of” for “of docetaxel (day 0). The”, “or HYB508 every 48 hours for three times. After” for “was added after”, “12” for “12 hrs (day 1) and on day 3. Twelve”, “days” for “days after”, “the” for “the last treatment,”, “(Sigma, St. Louis, Mo.)” for “(Sigma)”

[2] = test system: GEO human colon cancer cells; experiment: Soft agar growth of GEO cells; assay type: cell-based
Description: as §2, with “Cells” for “Soft agar growth. Cells”, “paclitaxel” for “docetaxel”, “2, 3 and 4. 12” for “3. Twelve”

[3] = test system: 1A9 human ovarian cancer cells; experiment: Soft agar growth of 1A9 cells; assay type: cell-based
Description: Cell lines. The 1A9 cell line is a clone of the human ovarian carcinoma cell line, A2780. 1A9 cells were kindly provided by Giannakakou, NCI Bethesda, Md., USA. Cells were maintained in RPMI medium supplemented with 10% heat-inactivated FBS, 20 mM HEPES, pH 7.4 penicillin (100 UI/ml), streptomycin (100 μg/ml) and 4 mM glutamine (ICN, Irvine, UK) in a humified atmosphere of 95% air and 5% CO2 at 37° C.
as §2, with “of” for “of docetaxel (day 0). The”, “or HYB508 every 48 hours for three times. After” for “was added after”, “12” for “12 hrs (day 1) and on day 3. Twelve”, “days” for “days after”, “the” for “the last treatment,”, “(Sigma, St. Louis, Mo.)” for “(Sigma)”

[4] = test system: OVCAR-3 ovarian cancer cells; experiment: Soft agar growth of OVCAR-3 cells; assay type: cell-based, human
Description: Cell lines. OVCAR human ovarian cancer cells were purchased from American Type Culture Collection (Rockville, Md., USA). Cells were maintained in DMEM and HAM'S F-12 (1:1) supplemented with 10% heat-inactivated FBS, 20 mM HEPES, pH 7.4, penicillin (100 UI/ml), streptomycin (100 μg/ml) and 4 mM glutamine (ICN, Irvine, UK) in a humified atmosphere of 95% air and 5% CO2 at 37° C.
as §2, with “of” for “of docetaxel (day 0). The”, “or HYB295 every 48 hours for three times. After” for “was added after”, “12” for “12 hrs (day 1) and on day 3. Twelve”, “days” for “days after”, “the” for “the last treatment,”, “(Sigma, St. Louis, Mo.)” for “(Sigma)”

[5] = test system: AR; experiment: Histochemical analysis of GEO tumors: AR; assay type: in vivo; conditions: after two cycles
Source text: Tumor specimens from the different groups of mice were examined by histochemical analysis at different time points to evaluate the expression of a variety of biological parameters.
TGFα and AR are growth factors which bind to EGFR and control human colon cancer growth through autocrine and paracrine mechanisms (F. Ciardiello and G. Tortora, Clin. Cancer Res. 4:821–828 (1998); D. S. Salomon, Crit. Rev. Oncol. Hematol. 19:183–232 (1995)).

“HYB 165: Hybrid 18-mer mixed backbone antisense to PKA RIα, GCGUGCCTCCTCACUGGC (SEQ ID NO:4), 2-O-methyl ribonucleotides at 5′ and 3′ ends (sugars by position and backbone not given here; 2'-O-methyl ribonucleotides at both ends, mixed backbone)” was tested, and the “inhibition of cell growth” value ([1]; 0.1 μM) was “approximately 5%”, the “inhibition of cell growth” value ([1]; 1 μM) was “about 34%” and the “inhibition of cell growth” value ([1]; 2.5 μM) was “over 85%”. It also gave a growth inhibition ([1]; HYB 165 0.1 μM + C225 0.25 μg/ml (days 1, 3) after docetaxel 0.01 nM (day 0)) of 93%, a growth inhibition ([1]; HYB 165 0.1 μM + MAb C225 0.25 μg/ml) of 37% and a growth inhibition ([1]; HYB 165 0.1 μM + MAb C225 0.5 μg/ml) of 65%. The growth inhibition ([1]; HYB 165 0.1 μM + MAb C225 1 μg/ml) was 85%, the growth inhibition ([1]; HYB 165 0.1 μM + MAb C225 2.5 μg/ml) was 90% and the growth inhibition ([1]; HYB 165 0.1 μM after docetaxel 0.01 nM) was 40%. It also gave a growth inhibition ([1]; HYB 165 0.1 μM after docetaxel 0.03 nM) of 70%, a growth inhibition ([1]; HYB 165 0.1 μM after docetaxel 0.1 nM) of 86% and a growth inhibition ([1]; HYB 165 0.1 μM after docetaxel 0.3 nM) of 97%. For the same substance, the growth inhibition ([1]; HYB 165 0.1 μM alone (Example 13)) was “about 8%”, the growth inhibition ([1]; HYB 165 0.1 μM alone (Example 21)) was “about 5%” and the growth inhibition ([1]; HYB 165 0.1 μM alone (Example 23)) was “about 2%”. The growth inhibition ([1]; HYB 165 0.5 μM + MAb C225 0.25 μg/ml) was 57%, the growth inhibition ([1]; HYB 165 0.5 μM + MAb C225 0.5 μg/ml) was 70% and the growth inhibition ([1]; HYB 165 0.5 μM + MAb C225 1 μg/ml) was 90%. For the same substance, the growth inhibition ([1]; HYB 165 0.5 μM + MAb C225 2.5 μg/ml) was 98%, the growth inhibition ([1]; HYB 165 0.5 μM after docetaxel 0.01 nM) was 65% and the growth inhibition ([1]; HYB 165 0.5 μM after docetaxel 0.03 nM) was 66%. The growth inhibition ([1]; HYB 165 0.5 μM after docetaxel 0.3 nM) was 99%, the growth inhibition ([1]; HYB 165 0.5 μM after docetaxel 0.1 1 nM) was 86% and the growth inhibition ([1]; HYB 165 0.5 μM alone (Example 21)) was “about 15%”. The growth inhibition ([1]; HYB 165 0.5 μM alone (Example 23)) was “about 10%”, the “cooperative effect of the combination” value ([1]; sequential combination with different doses of docetaxel) was “cooperatively inhibits the growth of ZR75-1 cells” and the “cooperative effect of the combination” value ([1]; with MAb C225 0.25 μg/ml and docetaxel 0.01 nM) was “cooperatively inhibit the growth of ZR75-1 cells”. For the same substance, the “cooperative effect of the combination” value ([1]; with different doses of MAb C225) was “cooperatively inhibit the growth of ZR-75-1 cells”, the growth inhibition ([2]; HYB 165 0.5 μM after paclitaxel 1 nM) was 40% and the growth inhibition ([2]; HYB 165 0.5 μM after paclitaxel 5 nM) was 62%. For the same substance, the growth inhibition ([2]; HYB 165 0.5 μM after paclitaxel 10 nM) was 86%, the growth inhibition ([2]; HYB 165 0.5 μM alone) was “about 20%” and the “cooperative effect of the combination” value ([2]; HYB 165 0.5 μM, sequential combination with different doses of paclitaxel) was “cooperatively inhibit the growth of GEO cells”. For the same substance, the “inhibition of cell growth” value ([3]; 0.1 μM) was “approximately 5%”, the “inhibition of cell growth” value ([3]; 0.5 μM) was “about 41%” and the “inhibition of cell growth” value ([3]; 1 μM) was “about 90%”. For the same substance, the “inhibition of cell growth” value ([3]; 2.5 μM) was “over 95%”, the “inhibition of cell growth” value ([4]; 0.1 μM) was “approximately 25%” and the “inhibition of cell growth” value ([4]; 0.5 μM) was “about 58%”. The “inhibition of cell growth” value ([4]; 1 μM) was “about 75%”, the “inhibition of cell growth” value ([4]; 2.5 μM) was “about 95%” and the “expression of AR” value ([5]; in combination with taxol) was “further enhanced”. The “expression of AR” value ([5]; single agent) was “inhibited the expression of TGF α and AR”.
